# Tested on: HELA cell line
# Assay: Capsule cytotoxicity, EZ4U cell proliferation and cytotoxicity assay
# Details: for % Viability 24 h: 24 h incubation; for % Viability 72 h: 72 h incubation
# Method: The test involved incubating cells from the HELA cell line with the substances against which the cytotoxicity was going to be tested, this test being commonly used as a way to check the toxicity. The tested compounds included the capsules, as well as their main constituents separately: the iron salt used in the capsules (ferric saccharate), and sodium alginate. A negative control, which contained HELA growth medium alone, was also prepared, and used as the reference growth.
# The test media were prepared under sterile conditions. Capsules prepared as in Example 1 (Capsule 0; batch 2 of Example 3) were sterilised in an autoclave (20 min, 110° C.). Using sterile material, 72 mg of capsules (capsules medium), 17 mg of ferric saccharate (iron salt medium) and 18 mg of sodium alginate (alginate medium) were each dissolved in 50 mL of HELA growth medium. […] 1:1, 1:10 and 1:100 dilutions of each of the test media were prepared by diluting the following amounts of capsules, iron salt or alginate medium with fresh HELA growth medium: • 1:1 20 μL+0 μL fresh HELA medium • 1:10 2 μL+18 μL fresh HELA medium • 1:100 0.2 μL+19.8 μL fresh HELA medium
# 3500 HeLa cells were cultured in 36 wells of two 96 well plates: 9 control wells and 27 for triplicates of 3 concentrations of 3 products. Medium was added to each well up to 100 μL. The cells were incubated at 37° C. for 24 h. 20 μL of each test media and 80 μL of fresh medium were added to each well. In the controls only 100 μL of fresh medium were added. One of the plates was incubated for 24 h and the other one for 72 h. The viability of the cells was measured after 24 and 72 h of incubation using the EZ4U non-radioactive cell proliferation and cytotoxicity assay (Biomedica Medizinproducte GmbH).
# The results were expressed as percentage of growth with respect to the controls, i. e. as the percentage of viability, which is computed as the number of living cells in any of the test solutions (capsules, ferric saccharate or sodium alginate) divided by the number of living cells in the negative control, and expressed as percentage.
Substance,cytotoxicity (in words),"% Viability 24 h (dilution 1:1, relative to negative control)",% Viability 24 h (dilution 1:10),% Viability 24 h (dilution 1:100),% Viability 72 h (dilution 1:1),% Viability 72 h (dilution 1:10),% Viability 72 h (dilution 1:100)
sodium alginate,No toxicity was observed,–,–,–,–,–,–
ferric saccharate [Iron salt],–,76.3% ± 9.7,101.7% ± 8.5,95.7% ± 3.2,66.8% ± 23.0,62.0% ± 15.7,68.7% ± 15.3

# From US20110195147A1, “IRON SOURCE PRODUCT IN THE FORM OF CAPSULES AND PROCESS FOR THEIR PREPARATION” (AB-BIOTICS S.A., priority 2008, published 2011)
